Measured values as given in the supplement of paper PMC10307832.

Tests used:
Test in all cases: relative viability (nuclei count vs DMSO), 5 days (fraction); higher = more cells survive
[1] = compound: O[C@@H](COc1cccc2ncccc12)CN1CCN([C@@H]2c3ccccc3[C@@H]3[C@H](c4ccccc42)C3(F)F)CC1 [Zosuquidar] + Cc1nc(NC(=O)N2CCC[C@H]2C(N)=O)sc1-c1ccnc(C(C)(C)C(F)(F)F)c1 [Alpelisib] (partner 2 µM)
In short: (§1)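 Relative viability divides the nuclei count in treated wells by that in vehicle wells. Lung cancer cell lines were seeded in 1536-well plates, dosed by pin tool the next day, and fixed and stained after 5 days in one step with final 0.05% Triton X-100, 1% formaldehyde and 1 ug/ml Hoechst. Dosing was a single drug or a fixed anchor-drug dose plus five library-drug doses (not always all listed) in √10 steps, and values are medians of duplicate plates imaged at 4×.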

[2] = compound: O[C@@H](COc1cccc2ncccc12)CN1CCN([C@@H]2c3ccccc3[C@@H]3[C@H](c4ccccc42)C3(F)F)CC1 [Zosuquidar] + C[C@@H](Oc1cc(-c2cnn(C3CCNCC3)c2)cnc1N)c1c(Cl)ccc(F)c1Cl [Crizotinib] (partner 1 µM)
In short: as §1

[3] = compound: O[C@@H](COc1cccc2ncccc12)CN1CCN([C@@H]2c3ccccc3[C@@H]3[C@H](c4ccccc42)C3(F)F)CC1 [Zosuquidar] + COc1cccc2cc(-c3nc([C@H]4CC[C@H](C(=O)O)CC4)n4ncnc(N)c34)[nH]c12 [OSI-027] (partner 0.5 µM)
In short: as §1

[4] = compound: O[C@@H](COc1cccc2ncccc12)CN1CCN([C@@H]2c3ccccc3[C@@H]3[C@H](c4ccccc42)C3(F)F)CC1 [Zosuquidar] + COc1cc2c(Oc3ccc(NC(=O)C4(C(=O)Nc5ccc(F)cc5)CC4)cc3F)ccnc2cc1OCCCN1CCOCC1 [Foretinib] (partner 0.25 µM)
In short: as §1

Cell Line: H3255
- relative viability ([1]; first compound 0.01 µM): 0.712
- relative viability ([1]; first compound 0.03162 µM): 0.769
- relative viability ([1]; first compound 0.1 µM): 0.492
- relative viability ([1]; first compound 0.3162 µM): 0.797
- relative viability ([1]; first compound 1 µM): 0.689
- relative viability ([2]; first compound 0.01 µM): 0.885
- relative viability ([2]; first compound 0.03162 µM): 0.832
- relative viability ([2]; first compound 0.1 µM): 0.669
- relative viability ([2]; first compound 0.3162 µM): 0.945
- relative viability ([2]; first compound 1 µM): 0.857
- relative viability ([3]; first compound 0.01 µM): 0.639
- relative viability ([3]; first compound 0.03162 µM): 0.532
- relative viability ([3]; first compound 0.1 µM): 0.451
- relative viability ([3]; first compound 0.3162 µM): 0.624
- relative viability ([3]; first compound 1 µM): 0.565
- relative viability ([4]; first compound 0.01 µM): 0.957
- relative viability ([4]; first compound 0.03162 µM): 0.607
- relative viability ([4]; first compound 0.1 µM): 0.621
- relative viability ([4]; first compound 0.3162 µM): 0.938
- relative viability ([4]; first compound 1 µM): 0.738

Cell Line: HARA
- relative viability ([1]; first compound 0.01 µM): 0.784
- relative viability ([1]; first compound 0.03162 µM): 0.822
- relative viability ([1]; first compound 0.1 µM): 0.765
- relative viability ([1]; first compound 0.3162 µM): 0.825
- relative viability ([1]; first compound 1 µM): 0.761
- relative viability ([2]; first compound 0.01 µM): 0.924
- relative viability ([2]; first compound 0.03162 µM): 1.03
- relative viability ([2]; first compound 0.1 µM): 1.14
- relative viability ([2]; first compound 0.3162 µM): 1.09
- relative viability ([2]; first compound 1 µM): 1.07
- relative viability ([3]; first compound 0.01 µM): 0.49
- relative viability ([3]; first compound 0.1 µM): 0.415
- relative viability ([3]; first compound 0.3162 µM): 0.564
- relative viability ([3]; first compound 1 µM): 0.398
- relative viability ([4]; first compound 0.01 µM): 0.857
- relative viability ([4]; first compound 0.1 µM): 0.883
- relative viability ([4]; first compound 0.3162 µM): 0.866
- relative viability ([4]; first compound 1 µM): 0.999

Cell Line: HCC-15
- relative viability ([1]; first compound 0.01 µM): 0.922
- relative viability ([1]; first compound 0.03162 µM): 0.88
- relative viability ([1]; first compound 0.1 µM): 0.869
- relative viability ([1]; first compound 0.3162 µM): 0.932
- relative viability ([1]; first compound 1 µM): 0.869
- relative viability ([2]; first compound 0.01 µM): 0.821
- relative viability ([2]; first compound 0.03162 µM): 0.865
- relative viability ([2]; first compound 0.1 µM): 0.71
- relative viability ([2]; first compound 0.3162 µM): 0.856
- relative viability ([2]; first compound 1 µM): 0.874
- relative viability ([3]; first compound 0.01 µM): 0.653
- relative viability ([3]; first compound 0.03162 µM): 0.64
- relative viability ([3]; first compound 0.1 µM): 0.568
- relative viability ([3]; first compound 0.3162 µM): 0.779
- relative viability ([3]; first compound 1 µM): 0.725
- relative viability ([4]; first compound 0.01 µM): 1.08
- relative viability ([4]; first compound 0.03162 µM): 1.08
- relative viability ([4]; first compound 0.1 µM): 0.864
- relative viability ([4]; first compound 0.3162 µM): 1.04
- relative viability ([4]; first compound 1 µM): 1.09

Cell Line: HCC-44
- relative viability ([1]; first compound 0.01 µM): 0.753
- relative viability ([1]; first compound 0.03162 µM): 0.817
- relative viability ([1]; first compound 0.1 µM): 0.842
- relative viability ([1]; first compound 0.3162 µM): 0.885
- relative viability ([1]; first compound 1 µM): 0.755
- relative viability ([2]; first compound 0.01 µM): 0.761
- relative viability ([2]; first compound 0.03162 µM): 0.828
- relative viability ([2]; first compound 0.1 µM): 0.84
- relative viability ([2]; first compound 0.3162 µM): 0.846
- relative viability ([2]; first compound 1 µM): 0.804
- relative viability ([3]; first compound 0.01 µM): 0.53
- relative viability ([3]; first compound 0.03162 µM): 0.391
- relative viability ([3]; first compound 0.1 µM): 0.542
- relative viability ([3]; first compound 0.3162 µM): 0.521
- relative viability ([3]; first compound 1 µM): 0.581

Cell Line: HCC-78
- relative viability ([1]; first compound 0.01 µM): 0.343
- relative viability ([1]; first compound 0.03162 µM): 0.313
- relative viability ([1]; first compound 0.3162 µM): 0.325
- relative viability ([1]; first compound 1 µM): 0.379
- relative viability ([2]; first compound 0.01 µM): 0.352
- relative viability ([2]; first compound 0.03162 µM): 0.321
- relative viability ([2]; first compound 0.3162 µM): 0.362
- relative viability ([2]; first compound 1 µM): 0.322
- relative viability ([3]; first compound 0.01 µM): 0.346
- relative viability ([3]; first compound 0.03162 µM): 0.356
- relative viability ([3]; first compound 0.3162 µM): 0.422
- relative viability ([3]; first compound 1 µM): 0.294
- relative viability ([4]; first compound 0.01 µM): 0.549
- relative viability ([4]; first compound 0.03162 µM): 0.548
- relative viability ([4]; first compound 0.3162 µM): 0.571
- relative viability ([4]; first compound 1 µM): 0.606

Cell Line: HCC-366
- relative viability ([1]; first compound 0.01 µM): 0.519
- relative viability ([1]; first compound 0.03162 µM): 0.449
- relative viability ([1]; first compound 0.1 µM): 0.337
- relative viability ([1]; first compound 0.3162 µM): 0.438
- relative viability ([1]; first compound 1 µM): 0.401
- relative viability ([2]; first compound 0.01 µM): 0.468
- relative viability ([2]; first compound 0.03162 µM): 0.59
- relative viability ([2]; first compound 0.1 µM): 0.636
- relative viability ([2]; first compound 0.3162 µM): 0.48
- relative viability ([2]; first compound 1 µM): 0.577
- relative viability ([3]; first compound 0.01 µM): 0.911
- relative viability ([3]; first compound 0.03162 µM): 1.09
- relative viability ([3]; first compound 0.1 µM): 0.845
- relative viability ([3]; first compound 0.3162 µM): 1.19
- relative viability ([3]; first compound 1 µM): 0.956
- relative viability ([4]; first compound 0.01 µM): 0.922
- relative viability ([4]; first compound 0.03162 µM): 0.856
- relative viability ([4]; first compound 0.1 µM): 0.999
- relative viability ([4]; first compound 0.3162 µM): 0.96
- relative viability ([4]; first compound 1 µM): 0.869

Cell Line: HCC-827
- relative viability ([1]; first compound 0.01 µM): 0.935
- relative viability ([1]; first compound 0.03162 µM): 1.01
- relative viability ([1]; first compound 0.1 µM): 0.759
- relative viability ([1]; first compound 0.3162 µM): 1.07
- relative viability ([1]; first compound 1 µM): 0.96
- relative viability ([2]; first compound 0.01 µM): 0.931
- relative viability ([2]; first compound 0.03162 µM): 0.923
- relative viability ([2]; first compound 0.1 µM): 0.937
- relative viability ([2]; first compound 0.3162 µM): 0.871
- relative viability ([2]; first compound 1 µM): 0.872
- relative viability ([3]; first compound 0.01 µM): 0.828
- relative viability ([3]; first compound 0.03162 µM): 0.723
- relative viability ([3]; first compound 0.1 µM): 0.673
- relative viability ([3]; first compound 0.3162 µM): 0.828
- relative viability ([3]; first compound 1 µM): 0.788
- relative viability ([4]; first compound 0.01 µM): 1.05
- relative viability ([4]; first compound 0.03162 µM): 1.03
- relative viability ([4]; first compound 0.1 µM): 0.9
- relative viability ([4]; first compound 0.3162 µM): 1.01
- relative viability ([4]; first compound 1 µM): 1.02
